According to patent US6916933B2, “4-pyridinyl-n-acyl-l-phenylalanines” (Hoffman-La Roche Inc., priority 1999, dated 2005):

Target: T1, cell-surface VLA-4 (α4β1 integrin) on Ramos cells binding to immobilized VCAM-1 (Homo sapiens, UniProt P05556+P13612)
T1 construct: Ramos cells bearing cell-surface VLA-4; endogenous in cells; host or cells: Ramos cells (VLA-4); VCAM-1 partner made in CHO cells
Assay: Ramos (VLA-4)/VCAM-1 Cell-Based Screening Assay (cell adhesion)
Details: Calcein-AM labeled Ramos cells, VCAM-1 coated plates
Description: Ramos (VLA-4)/VCAM-1 Cell-Based Screening Assay Protocol
Soluble recombinant human VCAM-1 (mixture of 5- and 7-Ig domain) was purified from CHO cell culture media by immunoaffinity chromatography and maintained in a solution containing 0.1 M Tris-glycine (pH 7.5), 0.1 M NaCl, 5 mM EDTA, 1 mM PMSF, […] NaN3 and 10 μg/mL leupeptin. Calcein-AM was purchased from Molecular Probes Inc.
VLA-4 (α4β1 integrin) antagonist activity, defined as ability to compete with cell-surface VLA-4 for binding to immobilized VCAM-1, was quantitated using a Ramos-VCAM-1 cell adhesion assay. Ramos cells bearing cell-surface VLA-4, were labeled with a fluorescent dye (Calcein-AM) and allowed to bind VCAM-1 in the presence or absence of test compounds. A reduction in fluorescence intensity associated with adherent cells (% inhibition) reflected competitive inhibition of VLA-4 mediated cell adhesion by the test compound.
Initially, this entailed coating 96 well plates (Nunc Maxisorp) with recombinant human VCAM-1 (100 ng in 100 μl PBS), sealing each plate and allowing the plates to stand at 4° C. for ≈18 hr. The VCAM-coated plates were subsequently washed twice with 0.05% Tween-20 in PBS, and then blocked for 1 hr (room temperature) with 200 μl of Blocking Buffer (1% BSA/0.02% thimerosal) to reduce non-specific binding. Following the incubation with Blocking Buffer, plates were inverted, blotted and the remaining buffer aspirated. Each plate was then washed with 300 μl PBS, inverted and the remaining PBS aspirated.
Test compounds were dissolved in 100% DMSO and then diluted 1:25 in VCAM Cell Adhesion Assay Buffer (4 mM CaCl2, 4 mM MgCl2 in 50 mM TRIS-HCl, pH 7.5) (final DMSO=4%). A series of eight 1:4 dilutions were performed for each compound (general concentration range of 1 nM-12,500 nM). 100 μl/well of each dilution was added to the VCAM-coated plates, followed by 100 μl of Ramos cells (200,000 cells/well in 1% BSA/PBS). Plates containing test compounds and Ramos cells were allowed to incubate for 45 min at room temperature, after which 165 μl/well PBS was added. Plates were inverted to remove non-adherent cells, blotted and 300 μL/well PBS added. Plates were again inverted, blotted and the remaining buffer gently aspirated. 100 μl Lysis Buffer (0.1% SDS in 50 mM TRIS-HCl, pH 8.5) was added to each well and agitated for 2 min on a rotary shaking platform. The plates were then read for fluorescence intensity on a Cytofluor 2300 (Millipore) fluorecence measurement system (excitation=485 nm, emission=530 nm).
The results are provided in the following Table II (A=IC50<100 nM, B=IC50<10000 nM, C=IC50<5,000 nM): […]

T1 sequence (P13612 34-1032): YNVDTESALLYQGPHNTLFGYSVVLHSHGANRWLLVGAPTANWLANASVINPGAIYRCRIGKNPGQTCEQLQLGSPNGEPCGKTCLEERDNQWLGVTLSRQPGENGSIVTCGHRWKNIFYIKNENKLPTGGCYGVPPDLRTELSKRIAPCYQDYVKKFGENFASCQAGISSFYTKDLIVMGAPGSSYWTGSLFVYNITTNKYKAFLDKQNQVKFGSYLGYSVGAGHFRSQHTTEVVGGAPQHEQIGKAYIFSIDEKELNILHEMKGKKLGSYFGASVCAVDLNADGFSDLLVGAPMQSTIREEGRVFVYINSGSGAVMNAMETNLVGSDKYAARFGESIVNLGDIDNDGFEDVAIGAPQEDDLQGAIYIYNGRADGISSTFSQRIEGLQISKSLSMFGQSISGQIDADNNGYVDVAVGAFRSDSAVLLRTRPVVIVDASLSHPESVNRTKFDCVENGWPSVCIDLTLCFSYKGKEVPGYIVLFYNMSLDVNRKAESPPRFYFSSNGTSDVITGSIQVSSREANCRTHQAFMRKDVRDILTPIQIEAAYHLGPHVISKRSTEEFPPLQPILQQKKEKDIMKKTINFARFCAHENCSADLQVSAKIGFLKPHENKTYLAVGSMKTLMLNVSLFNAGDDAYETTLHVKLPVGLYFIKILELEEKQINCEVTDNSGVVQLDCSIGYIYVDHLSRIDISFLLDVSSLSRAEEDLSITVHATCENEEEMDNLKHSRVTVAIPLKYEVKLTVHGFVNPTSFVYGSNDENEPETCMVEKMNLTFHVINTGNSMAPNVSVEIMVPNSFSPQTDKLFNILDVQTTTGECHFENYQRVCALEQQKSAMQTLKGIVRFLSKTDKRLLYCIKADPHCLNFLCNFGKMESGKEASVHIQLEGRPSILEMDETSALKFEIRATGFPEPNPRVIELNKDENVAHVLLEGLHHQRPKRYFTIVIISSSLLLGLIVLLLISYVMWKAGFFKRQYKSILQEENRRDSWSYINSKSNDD
T1 sequence (P05556 21-798): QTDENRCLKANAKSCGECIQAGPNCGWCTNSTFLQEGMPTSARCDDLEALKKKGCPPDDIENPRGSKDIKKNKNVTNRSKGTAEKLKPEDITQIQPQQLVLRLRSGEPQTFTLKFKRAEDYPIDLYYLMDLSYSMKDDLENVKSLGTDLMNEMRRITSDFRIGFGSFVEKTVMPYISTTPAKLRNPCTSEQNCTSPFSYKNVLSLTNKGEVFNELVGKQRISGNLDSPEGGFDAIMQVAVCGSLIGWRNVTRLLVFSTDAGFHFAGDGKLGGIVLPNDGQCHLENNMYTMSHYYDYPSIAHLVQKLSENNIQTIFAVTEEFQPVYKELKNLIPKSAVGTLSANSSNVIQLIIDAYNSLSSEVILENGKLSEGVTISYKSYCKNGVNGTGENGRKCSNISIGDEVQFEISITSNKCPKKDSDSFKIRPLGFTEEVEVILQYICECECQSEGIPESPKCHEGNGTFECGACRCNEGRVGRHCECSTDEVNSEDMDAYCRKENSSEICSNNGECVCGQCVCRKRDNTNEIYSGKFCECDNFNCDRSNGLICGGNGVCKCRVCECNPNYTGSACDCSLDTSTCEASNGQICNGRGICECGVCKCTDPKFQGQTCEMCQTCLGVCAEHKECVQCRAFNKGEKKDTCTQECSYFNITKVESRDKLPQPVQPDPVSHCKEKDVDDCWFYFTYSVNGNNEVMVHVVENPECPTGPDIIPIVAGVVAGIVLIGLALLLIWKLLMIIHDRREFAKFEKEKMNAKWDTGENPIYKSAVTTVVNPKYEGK

| IC50 [µM] | Structure (SMILES) |
| --- | --- |
| < 10 | Cc1cccc(Cl)c1C(=O)N[C@@H](Cc1ccc(-c2cccn(C)c2=O)cc1)C(=O)O [Example 30, N-[(2-chloro-6-methylphenyl)carbonyl]-4-(1-methyl-2-oxo-3-pyridinyl)-L-phenylalanine] |
| < 10 | Cc1ccn(C)c(=O)c1-c1ccc(C[C@H](NC(=O)c2c(Cl)cccc2Cl)C(=O)O)cc1 [Example 31, N-[(2,6-dichlorophenyl)carbonyl]-4-(1,4-dimethyl-2-oxo-3-pyridinyl)-L-phenylalanine] |
| < 10 | Cc1cccc(Cl)c1C(=O)N[C@@H](Cc1ccc(-c2c(C)ccn(C)c2=O)cc1)C(=O)O [Example 32, N-[(2-chloro-6-methylphenyl)carbonyl]-4-(1,4-dimethyl-2-oxo-3-pyridinyl)-L-phenylalanine] |
| < 0.1 | Cc1cc(C(F)(F)F)c(-c2ccc(C[C@H](NC(=O)c3c(Cl)cccc3Cl)C(=O)O)cc2)c(=O)n1C [Example 33, N-[(2,6-dichlorophenyl)carbonyl]-4-[1,6-dimethyl-4-(trifluoromethyl)-2-oxo-3-pyridinyl]-L-phenylalanine] |
| < 10 | CCc1cccc(C)c1C(=O)N[C@@H](Cc1ccc(-c2c(C(F)(F)F)cc(C)n(C)c2=O)cc1)C(=O)O [Example 34, N-[(2-ethyl-6-methylphenyl)carbonyl]-4-[1,6-dimethyl-4-(trifluoromethyl)-2-oxo-3-pyridinyl]-L-phenylalanine] |
| < 10 | Cc1cccc(C(C)C)c1C(=O)N[C@@H](Cc1ccc(-c2c(C(F)(F)F)cc(C)n(C)c2=O)cc1)C(=O)O [Example 35, N-[(2-(1-methylethyl)-6-methylphenyl)carbonyl]-4-[1,6-dimethyl-4-(trifluoromethyl)-2-oxo-3-pyridinyl]-L-phenylalanine] |
| < 0.1 | Cc1cccc(Cl)c1C(=O)N[C@@H](Cc1ccc(-c2c(C(F)(F)F)cc(C)n(C)c2=O)cc1)C(=O)O [Example 36, N-[(2-chloro-6-methylphenyl)carbonyl]-4-[1,6-dimethyl-4-(trifluoromethyl)-2-oxo-3-pyridinyl]-L-phenylalanine] |
| < 10 | COCCC1(C(=O)N[C@@H](Cc2ccc(-c3c(C(F)(F)F)cc(C)n(C)c3=O)cc2)C(=O)O)CCCC1 [Example 37, N-[[1-(2-methoxyethyl)cyclopentyl]carbonyl]-4-[1,6-dimethyl-4-(trifluoromethyl)-2-oxo-3-pyridinyl]-L-phenylalanine] |
